Consider 21 molecules from PubChem BioAssay AID328 (DTP/NCI, 2004).

This experiment relates to BDF1 mice, P388 leukemia ip, median survival T/C. The experiment is described as follows: NCI In Vivo Anticancer Drug Screen. Data for tumor model P388 Leukemia (intraperitoneal) in B6D2F1 (BDF1) mice. To be noted: endpoint: median survival time, higher = longer survival. Put shortly:
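Mice carrying the transplantable tumour receive compound or vehicle. Survival is followed in each arm, and the treated measure is divided by the vehicle measure.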

[1] abbreviates: dose: 100.0 mg/kg/injection, schedule: Q01DX009 (ip), vehicle: Klucel (hydroxypropylcellulose) (HPC).
The mark [2] stands for this setting: dose: 50.0 mg/kg/injection, schedule: Q01DX009 (ip), vehicle: saline with Tween-80.
Where [3] appears, read: dose: 100.0 mg/kg/injection, schedule: Q01DX009 (ip), vehicle: saline with Tween-80.
Setting [4] is: dose: 200.0 mg/kg/injection, schedule: Q01DX009 (ip), vehicle: saline with Tween-80.
Where [5] appears, read: dose: 25.0 mg/kg/injection, schedule: Q01DX009 (ip), vehicle: water.
Setting [6] is: dose: 100.0 mg/kg/injection, schedule: Q04DX003 (ip), vehicle: water.
Where [7] appears, read: dose: 200.0 mg/kg/injection, schedule: Q04DX003 (ip), vehicle: water.
The mark [8] stands for this setting: dose: 400.0 mg/kg/injection, schedule: Q01DX009 (ip), vehicle: saline with Tween-80.
[9] abbreviates: dose: 6.25 mg/kg/injection, schedule: Q01DX009 (ip), vehicle: saline.
Where [10] appears, read: dose: 12.5 mg/kg/injection, schedule: Q01DX009 (ip), vehicle: saline.
[11] abbreviates: dose: 25.0 mg/kg/injection, schedule: Q01DX009 (ip), vehicle: saline.
The mark [12] stands for this setting: dose: 50.0 mg/kg/injection, schedule: Q01DX009 (ip), vehicle: saline.

Each structure is given as a SMILES string. Several values for one entry are separate records, joined by “and”; a condition that tells them apart may be missing. Equal values may be shown once. Toxic doses and inconclusive results are not listed.

Take `Cc1ccc(/C=C2\CC(C)(C)c3ccccc3C2=O)cc1`: the T/C reads like this: (dose: 65.0 mg/kg/injection, schedule: Q01DX009 (ip), vehicle: Klucel (hydroxypropylcellulose) (HPC)) 90 % of control; under setting [1], 87 % of control and 95 % of control; (dose: 400.0 mg/kg/injection, schedule: Q01DX009 (ip), vehicle: Klucel (hydroxypropylcellulose) (HPC)) 100 % of control.

For the molecule `NC(=O)c1ncccc1C(=O)O`, the T/C runs as follows: (dose: 100.0 mg/kg/injection, schedule: Q01DX001 (ip), vehicle: saline with Tween-80) 103 % of control; (dose: 200.0 mg/kg/injection, schedule: Q01DX001 (ip), vehicle: saline with Tween-80) 100 % of control; (dose: 400.0 mg/kg/injection, schedule: Q01DX001 (ip), vehicle: saline with Tween-80) 96 % of control.

As for `Cc1ccc(-n2c(O)c(C=N)c(=O)[nH]c2=O)cc1`, the T/C is, setting by setting: under setting [2], 86 % of control; under setting [3], 86 % of control; under setting [4], 113 % of control.

As for `CCCC1CC[N-]CC1.CCCC1CC[N-]CC1.[Cl][Pd][Cl]`, the T/C is, setting by setting: (dose: 12.5 mg/kg/injection, schedule: Q04DX003 (ip), vehicle: water) 95 % of control; under setting [5], 114 % of control; (dose: 50.0 mg/kg/injection, schedule: Q01DX009 (ip), vehicle: water) 114 % of control; under setting [6], 90 % of control and 112 % of control and 120 % of control; under setting [7], 95 % of control and 99 % of control and 120 % of control; (dose: 300.0 mg/kg/injection, schedule: Q04DX003 (ip), vehicle: water) 96 % of control.

In the case of `O=S(=O)(O)c1cc(O)c2cc(Nc3ccccc3)ccc2c1`, the T/C runs as follows: (dose: 50.0 mg/kg/injection, schedule: Q04DX003 (ip), vehicle: saline) 104 % of control; (dose: 100.0 mg/kg/injection, schedule: Q04DX003 (ip), vehicle: saline) 113 % of control; (dose: 200.0 mg/kg/injection, schedule: Q04DX003 (ip), vehicle: saline) 109 % of control.

On to `O=C1NC(=O)C(c2cccs2)(c2cccs2)N1`, for which the T/C is 115 % of control under setting [5]; 111 % of control (dose: 100.0 mg/kg/injection, schedule: Q01DX009 (ip), vehicle: water); 99 % of control under setting [6]; 98 % of control under setting [7].

As to `CC1CCN(SSc2nc3ccccc3s2)CC1`, the T/C under setting [2] was 110 % of control and the T/C under setting [3] is 110 % of control.

Turning to `CC1=C(O)/C(=C/C(C)CCC/C(C)=C/CC/C(C)=C/CCc2ccoc2)OC1=O` (stereo unspecified), the T/C was 100 % of control (dose: 0.31 mg/kg/injection, schedule: Q01DX009 (ip), vehicle: saline with Tween-80); 104 % of control (dose: 0.62 mg/kg/injection, schedule: Q01DX009 (ip), vehicle: saline with Tween-80); 98 % of control (dose: 2.5 mg/kg/injection, schedule: Q01DX009 (ip), vehicle: saline with Tween-80); 90 % of control (dose: 5.0 mg/kg/injection, schedule: Q01DX009 (ip), vehicle: saline with Tween-80).

As to `c1ccc(C([CH2][Hg][CH2]C(c2ccccc2)c2ccccc2)c2ccccc2)cc1`, the T/C was 100 % of control (dose: 100.0 mg/kg/injection, schedule: Q01DX009 (ip), vehicle: other); 100 % of control (dose: 100.0 mg/kg/injection, schedule: Q04DX003 (ip), vehicle: Klucel (hydroxypropylcellulose) (HPC)); 104 % of control (dose: 200.0 mg/kg/injection, schedule: Q01DX009 (ip), vehicle: other); 116 % of control (dose: 200.0 mg/kg/injection, schedule: Q04DX003 (ip), vehicle: Klucel (hydroxypropylcellulose) (HPC)); 114 % of control (dose: 400.0 mg/kg/injection, schedule: Q01DX009 (ip), vehicle: other); 100 % of control (dose: 400.0 mg/kg/injection, schedule: Q04DX003 (ip), vehicle: Klucel (hydroxypropylcellulose) (HPC)).

As for `Cc1[nH]ncc1Br`, the T/C was 105 % of control under setting [3], 98 % of control under setting [4] and 105 % of control under setting [8].

Turning to `Cc1c2oc3c(C)ccc(C(=O)NCc4ccccc4)c3nc-2c(C(=O)NCc2ccccc2)c(N)c1=O`, the T/C is 99 % of control (dose: 100.0 mg/kg/injection, schedule: Q04DX002 (sc), vehicle: olive oil, sesame oil, peanut oil); 98 % of control (dose: 200.0 mg/kg/injection, schedule: Q04DX002 (sc), vehicle: olive oil, sesame oil, peanut oil); 101 % of control (dose: 400.0 mg/kg/injection, schedule: Q04DX002 (sc), vehicle: olive oil, sesame oil, peanut oil).

In the case of `N/C(=N\O)c1cn(C2OC(CO)C(O)C2O)c2ncnc(N)c12` (stereo unspecified), the T/C is 150 % of control (dose: 0.6 mg/kg/injection, schedule: Q01DX009 (ip), vehicle: Klucel (hydroxypropylcellulose) (HPC)); 168 % of control (dose: 1.25 mg/kg/injection, schedule: Q01DX009 (ip), vehicle: Klucel (hydroxypropylcellulose) (HPC)); 154 % of control (dose: 2.5 mg/kg/injection, schedule: Q01DX009 (ip), vehicle: Klucel (hydroxypropylcellulose) (HPC)); 172 % of control (dose: 5.0 mg/kg/injection, schedule: Q01DX009 (ip), vehicle: Klucel (hydroxypropylcellulose) (HPC)).

For the molecule `CCC12CCC(=O)NC1Cc1[nH]c3c(OC)cccc3c1C2` (stereo unspecified), the T/C is 100 % of control (dose: 100.0 mg/kg/injection, schedule: Q04DX003 (ip), vehicle: saline sonified); 100 % of control (dose: 200.0 mg/kg/injection, schedule: Q04DX003 (ip), vehicle: saline sonified); 109 % of control (dose: 400.0 mg/kg/injection, schedule: Q04DX003 (ip), vehicle: saline sonified).

As for `O=C1c2ccccc2C(=O)N1CCCn1c2ccccc2c2cnccc21`, the T/C under setting [3] was 105 % of control; the T/C (dose: 100.0 mg/kg/injection, schedule: Q04DX003 (ip), vehicle: saline with Tween-80) is 95 % of control; the T/C under setting [4] was 90 % of control; the T/C (dose: 200.0 mg/kg/injection, schedule: Q04DX003 (ip), vehicle: saline with Tween-80) was 100 % of control; the T/C under setting [8] is 110 % of control; the T/C (dose: 400.0 mg/kg/injection, schedule: Q04DX003 (ip), vehicle: saline with Tween-80) was 90 % of control.

Turning to `CCCCCCCCCCCCCCC1C(=O)NN(c2ccccc2)C1=O` (stereo unspecified), the T/C was 108 % of control (dose: 37.5 mg/kg/injection, schedule: Q01DX009 (ip), vehicle: saline with Tween-80); 115 % of control (dose: 75.0 mg/kg/injection, schedule: Q01DX009 (ip), vehicle: saline with Tween-80); 122 % of control (dose: 150.0 mg/kg/injection, schedule: Q01DX009 (ip), vehicle: saline with Tween-80).

As for `[Cl][Eu]([Cl])[Cl]`, the T/C was 98 % of control under setting [9], 100 % of control under setting [10], 92 % of control under setting [11] and 96 % of control under setting [12].

Take `CCOc1c(Cl)cc(Cl)cc1C(c1ccc(Cl)cc1S(=O)(=O)O)c1cc(Cl)cc(Cl)c1OCC`: the T/C is 108 % of control (dose: 25.0 mg/kg/injection, schedule: Q01DX009 (ip), vehicle: saline with Tween-80) and 116 % of control under setting [2].

`CCCCCSc1nc(N)nc2nc[nH]c12`: the T/C is 118 % of control under setting [1]; 100 % of control (dose: 100.0 mg/kg/injection, schedule: Q04DX003 (ip), vehicle: other); 95 % of control (dose: 200.0 mg/kg/injection, schedule: Q01DX009 (ip), vehicle: Klucel (hydroxypropylcellulose) (HPC)); 100 % of control (dose: 200.0 mg/kg/injection, schedule: Q04DX003 (ip), vehicle: other); 94 % of control (dose: 400.0 mg/kg/injection, schedule: Q04DX003 (ip), vehicle: other).

As to `C=CCN(CC=C)CCN(CC)CC`, the T/C runs as follows: under setting [9], 111 % of control; under setting [10], 101 % of control; under setting [11], 109 % of control; under setting [12], 101 % of control.

As to `CCN(CC)C(=S)SSC(=S)N(CC)CC`, the T/C is 104 % of control (dose: 75.0 mg/kg/injection, schedule: Q01DX001 (ip), vehicle: Klucel (hydroxypropylcellulose) (HPC)); 104 % of control (dose: 150.0 mg/kg/injection, schedule: Q01DX001 (ip), vehicle: Klucel (hydroxypropylcellulose) (HPC)); 95 % of control (dose: 300.0 mg/kg/injection, schedule: Q01DX001 (ip), vehicle: Klucel (hydroxypropylcellulose) (HPC)).

For `CC1(C)N=C(N)N=C(N)N1c1ccc(C(N)=O)cc1`, the T/C reads like this: (dose: 50.0 mg/kg/injection, schedule: Q01DX005 (ip), vehicle: Klucel (hydroxypropylcellulose) (HPC)) 109 % of control; (dose: 100.0 mg/kg/injection, schedule: Q01DX005 (ip), vehicle: Klucel (hydroxypropylcellulose) (HPC)) 112 % of control.
